From the supplement of paper PMC13380429

Legend:
[1] = tested on: A549-ACE2 infected with SARS-CoV-2; assay: SARS-CoV-2 infection rate relative to DMSO; higher = more infection; conditions: 24 h
[2] = tested on: A549-ACE2 infected with SARS-CoV-2; assay: cell count relative to DMSO; higher = less toxic; conditions: 24 h
Calu-3 [3] = assay: cell viability relative to DMSO; higher = less toxic; conditions: 72 h
Vero E6 [4] = assay: as above; conditions: 72 h
HepG2 [5] = assay: as above; conditions: 72 h
Caco-2 [6] = assay: as above; conditions: 72 h
U2OS [7] = assay: as above; conditions: 72 h
Vero E6 [8] = assay: relative viability EC50 (midpoint between 100% and the lowest measured viability); higher = less toxic; conditions: 72 h
U2OS [9] = assay: as above; conditions: 72 h
[10] = tested on: A549-ACE2 infected with SARS-CoV-2; assay: morphology score (similarity to uninfected cells); higher = more like uninfected cells; conditions: 24 h
A549-ACE2 [11] = assay: phospholipidosis EC50; higher = less potent phospholipidosis inducer
Calu-3 [12] = assay: drug sensitivity score (DSS) for viability; higher = more toxic; extreme values may be limits of the assay; conditions: 72 h
Vero E6 [13] = assay: as above; conditions: 72 h
HepG2 [14] = assay: as above; conditions: 72 h
Caco-2 [15] = assay: as above; conditions: 72 h
U2OS [16] = assay: as above; conditions: 72 h
A549-ACE2 [17] = assay: drug-induced phospholipidosis relative to tamoxifen; higher = more phospholipidosis
HepG2 [18] = assay: relative viability EC50 (midpoint between 100% and the lowest measured viability); higher = less toxic; conditions: 72 h
Caco-2 [19] = assay: as above; conditions: 72 h
Calu-3 [20] = assay: as above; conditions: 72 h

CC(C)(C)c1ccc(C(=O)CCCN2CCC(OC(c3ccccc3)c3ccccc3)CC2)cc1 [ebastine]
Conditions	SARS-CoV-2 infection rate [%]	cell count [%]	cell viability [%]	morphology score	phospholipidosis EC50 [µM]
A549-ACE2 [11], 24 h	–	–	–	–	3.13
A549-ACE2 [11], 48 h	–	–	–	–	22.1
A549-ACE2 [11], 72 h	–	–	–	–	17.3
Caco-2 [6], 1 nM	–	–	97.6	–	–
Caco-2 [6], 10 nM	–	–	102	–	–
Caco-2 [6], 100 nM	–	–	104	–	–
Caco-2 [6], 1000 nM	–	–	98.8	–	–
Caco-2 [6], 10000 nM	–	–	68.2	–	–
Calu-3 [3], 1 nM	–	–	96.4	–	–
Calu-3 [3], 10 nM	–	–	95.7	–	–
Calu-3 [3], 100 nM	–	–	106	–	–
Calu-3 [3], 1000 nM	–	–	101	–	–
Calu-3 [3], 10000 nM	–	–	60.2	–	–
HepG2 [5], 1 nM	–	–	89.3	–	–
HepG2 [5], 10 nM	–	–	110	–	–
HepG2 [5], 100 nM	–	–	101	–	–
HepG2 [5], 1000 nM	–	–	108	–	–
HepG2 [5], 10000 nM	–	–	60.5	–	–
U2OS [7], 1 nM	–	–	99	–	–
U2OS [7], 10 nM	–	–	94.6	–	–
U2OS [7], 100 nM	–	–	102	–	–
U2OS [7], 1000 nM	–	–	93.6	–	–
U2OS [7], 10000 nM	–	–	87.9	–	–
Vero E6 [4], 1 nM	–	–	88.3	–	–
Vero E6 [4], 10 nM	–	–	98.7	–	–
Vero E6 [4], 100 nM	–	–	92.1	–	–
Vero E6 [4], 1000 nM	–	–	92	–	–
Vero E6 [4], 10000 nM	–	–	86.8	–	–
[1], 0.3 µM	105	–	–	–	–
[1], 3 µM	44	–	–	–	–
[1], 10 µM	26	–	–	–	–
[1], 30 µM	26	–	–	–	–
[2], 0.3 µM	–	99	–	–	–
[2], 3 µM	–	117	–	–	–
[2], 10 µM	–	111	–	–	–
[2], 30 µM	–	58	–	–	–
[10], 0.3 µM	–	–	–	-0.12	–
[10], 3 µM	–	–	–	0.71	–
[10], 10 µM	–	–	–	0.8	–
[10], 30 µM	–	–	–	0.25	–

Conditions	drug sensitivity score	relative viability EC50 [µM]
Caco-2 [15]	1.6	–
Calu-3 [12]	1.9	–
HepG2 [14]	1.5	–
U2OS [9]	–	> 10
U2OS [16]	0.3	–
Vero E6 [8]	–	> 10
Vero E6 [13]	0	–

drug-induced phospholipidosis [%], A549-ACE2 [17]
Conditions	0.3 µM	0.833333 µM	3.33333 µM	6.66667 µM	10 µM	30 µM
24 h	8.24	11.3	46.9	67.3	73.2	55.4
48 h	5.48	4.12	27.6	52.1	76.4	–
72 h	5.22	0.608	24.1	42.2	62.6	–

CC(=O)[O-].CC(=O)[O-].N.NC1CCCCC1.[Cl-].[Cl-].[Pt+4] [satraplatin]
Conditions	SARS-CoV-2 infection rate, [1] [%]	cell count, [2] [%]	cell viability, Caco-2 [6] [%]	cell viability, Calu-3 [3] [%]	cell viability, HepG2 [5] [%]	cell viability, U2OS [7] [%]	cell viability, Vero E6 [4] [%]	morphology score, [10]
1 nM	–	–	95.7	113	105	104	106	–
10 nM	–	–	99.7	119	96.5	109	103	–
0.1 µM	107	107	–	–	–	–	–	0.11
100 nM	–	–	93.5	96.6	102	103	93.4	–
0.3 µM	108	94	–	–	–	–	–	-0.19
1 µM	90	98	–	–	–	–	–	0.26
1000 nM	–	–	93.3	94.8	73.8	105	91.7	–
3 µM	97	93	–	–	–	–	–	0.04
10000 nM	–	–	42	69	36.1	8.5	68.1	–

Conditions	drug sensitivity score	relative viability EC50 [µM]
Caco-2 [15]	4.3	–
Caco-2 [19]	–	2.21
Calu-3 [12]	2.2	–
HepG2 [14]	7	–
HepG2 [18]	–	1.16
U2OS [9]	–	3.44
U2OS [16]	4.7	–
Vero E6 [13]	2.4	–

drug-induced phospholipidosis [%], A549-ACE2 [17]
Conditions	0.3 µM	0.833333 µM	3.33333 µM	6.66667 µM	10 µM
24 h	3.84	0.69	3.32	0.26	5.28
48 h	3.35	-1.19	-0.57	-1.29	-2.3
72 h	2.49	-2.74	0.684	–	–

NC(=O)C(c1ccccc1)(c1ccc(F)cc1)c1ccc(F)cc1 [senicapoc]
cell viability [%]
Conditions	Caco-2 [6]	Calu-3 [3]	HepG2 [5]	U2OS [7]	Vero E6 [4]
1 nM	101	99	93.4	102	96.9
10 nM	105	96.7	98.8	96.9	99.1
100 nM	102	99	96.4	104	94.5
1000 nM	92.4	102	95.5	98.8	97.3
10000 nM	99.4	92.3	97.7	98.8	92.9

Conditions	drug sensitivity score	relative viability EC50 [µM]
Caco-2 [15]	0	–
Caco-2 [19]	–	> 10
Calu-3 [12]	0	–
Calu-3 [20]	–	> 10
HepG2 [14]	0	–
HepG2 [18]	–	> 10
U2OS [9]	–	> 10
U2OS [16]	0	–
Vero E6 [8]	–	> 10
Vero E6 [13]	0	–

N[C@@H](CC(=O)N1CCn2c(nnc2C(F)(F)F)C1)Cc1cc(F)c(F)cc1F [sitagliptin]
cell viability [%]
Conditions	Caco-2 [6]	Calu-3 [3]	HepG2 [5]	U2OS [7]	Vero E6 [4]
1 nM	108	107	89.2	97.5	97.7
10 nM	99.5	100	98.9	94.6	106
100 nM	97.1	99.5	91.1	97.4	90.7
1000 nM	102	106	97.5	94.8	107
10000 nM	84.1	97.7	88.6	97.7	102

Conditions	drug sensitivity score	relative viability EC50 [µM]
Caco-2 [15]	0.2	–
Caco-2 [19]	–	> 10
Calu-3 [12]	0	–
Calu-3 [20]	–	> 10
HepG2 [14]	0	–
HepG2 [18]	–	> 10
U2OS [9]	–	> 10
U2OS [16]	0	–
Vero E6 [8]	–	> 10
Vero E6 [13]	0	–

NCCCNCCCCNCCCN [spermine]
cell viability [%]
Conditions	Caco-2 [6]	Calu-3 [3]	HepG2 [5]	U2OS [7]	Vero E6 [4]
1 nM	90.2	99.2	93.6	96.5	95.3
10 nM	124	101	98.4	96.3	94.1
100 nM	93.5	81.9	104	96.1	95.8
1000 nM	98	99.2	93.1	96.8	98.6
10000 nM	96.7	104	94.3	103	106

Conditions	drug sensitivity score	relative viability EC50 [µM]
Caco-2 [15]	0	–
Caco-2 [19]	–	> 10
Calu-3 [12]	0	–
Calu-3 [20]	–	> 10
HepG2 [14]	0	–
HepG2 [18]	–	> 10
U2OS [9]	–	> 10
U2OS [16]	0	–
Vero E6 [8]	–	> 10
Vero E6 [13]	0	–

Nc1ccc(S(=O)(=O)Nc2ccnn2-c2ccccc2)cc1 [sulfaphenazole]
cell viability [%]
Conditions	Caco-2 [6]	Calu-3 [3]	HepG2 [5]	U2OS [7]	Vero E6 [4]
1 nM	97.5	97.2	102	97.4	93.1
10 nM	100	100	99.5	97.8	102
100 nM	102	101	85.5	100	88.4
1000 nM	96.1	104	112	99.4	99.5
10000 nM	94	97.2	103	101	108

Conditions	drug sensitivity score	relative viability EC50 [µM]
Caco-2 [15]	0	–
Caco-2 [19]	–	> 10
Calu-3 [12]	0	–
Calu-3 [20]	–	> 10
HepG2 [14]	0	–
HepG2 [18]	–	> 10
U2OS [9]	–	> 10
U2OS [16]	0	–
Vero E6 [8]	–	> 10
Vero E6 [13]	0	–
